{"source": "paper PMC8402619", "about": "(Viruses, 2021)", "key": {"CYP3A4": {"target": "CYP3A4 (Homo sapiens, UniProt P08684)", "sequence (P08684 whole entry)": "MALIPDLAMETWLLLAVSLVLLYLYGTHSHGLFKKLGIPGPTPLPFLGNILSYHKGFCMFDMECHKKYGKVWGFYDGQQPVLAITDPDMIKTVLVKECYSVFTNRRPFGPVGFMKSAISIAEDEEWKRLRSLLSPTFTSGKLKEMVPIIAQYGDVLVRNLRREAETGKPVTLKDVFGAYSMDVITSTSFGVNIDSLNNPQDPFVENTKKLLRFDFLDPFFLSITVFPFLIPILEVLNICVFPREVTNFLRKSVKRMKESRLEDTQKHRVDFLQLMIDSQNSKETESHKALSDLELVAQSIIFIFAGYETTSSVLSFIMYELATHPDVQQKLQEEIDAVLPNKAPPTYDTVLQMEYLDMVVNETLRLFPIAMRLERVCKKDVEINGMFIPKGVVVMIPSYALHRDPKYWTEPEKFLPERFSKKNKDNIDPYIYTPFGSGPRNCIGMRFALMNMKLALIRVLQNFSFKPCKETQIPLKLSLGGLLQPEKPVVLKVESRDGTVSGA", "assay": "Reversible CYP inhibition in pooled human liver microsomes", "type": "in vitro ADME"}, "CYP2B6 [1]": {"target": "T1, CYP2B6 (Homo sapiens, UniProt P20813)", "T1 sequence (P20813 1-491)": "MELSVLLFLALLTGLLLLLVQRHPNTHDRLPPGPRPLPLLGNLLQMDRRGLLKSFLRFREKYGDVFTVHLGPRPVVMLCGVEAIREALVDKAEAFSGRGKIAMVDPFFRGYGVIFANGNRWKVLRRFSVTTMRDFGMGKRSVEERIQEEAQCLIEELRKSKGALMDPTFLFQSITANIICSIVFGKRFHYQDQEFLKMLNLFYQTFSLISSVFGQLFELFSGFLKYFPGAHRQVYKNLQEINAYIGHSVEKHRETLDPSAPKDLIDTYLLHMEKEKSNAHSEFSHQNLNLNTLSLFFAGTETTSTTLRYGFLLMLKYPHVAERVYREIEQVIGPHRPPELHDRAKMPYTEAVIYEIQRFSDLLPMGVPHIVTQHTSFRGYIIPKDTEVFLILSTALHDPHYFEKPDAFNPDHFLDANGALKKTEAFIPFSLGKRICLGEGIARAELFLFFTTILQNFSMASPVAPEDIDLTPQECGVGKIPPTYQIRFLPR", "assay": "Reversible CYP inhibition in pooled human liver microsomes", "type": "in vitro ADME"}, "CYP2C19": {"target": "CYP2C19 (Homo sapiens, UniProt P33261)", "sequence (P33261 whole entry)": "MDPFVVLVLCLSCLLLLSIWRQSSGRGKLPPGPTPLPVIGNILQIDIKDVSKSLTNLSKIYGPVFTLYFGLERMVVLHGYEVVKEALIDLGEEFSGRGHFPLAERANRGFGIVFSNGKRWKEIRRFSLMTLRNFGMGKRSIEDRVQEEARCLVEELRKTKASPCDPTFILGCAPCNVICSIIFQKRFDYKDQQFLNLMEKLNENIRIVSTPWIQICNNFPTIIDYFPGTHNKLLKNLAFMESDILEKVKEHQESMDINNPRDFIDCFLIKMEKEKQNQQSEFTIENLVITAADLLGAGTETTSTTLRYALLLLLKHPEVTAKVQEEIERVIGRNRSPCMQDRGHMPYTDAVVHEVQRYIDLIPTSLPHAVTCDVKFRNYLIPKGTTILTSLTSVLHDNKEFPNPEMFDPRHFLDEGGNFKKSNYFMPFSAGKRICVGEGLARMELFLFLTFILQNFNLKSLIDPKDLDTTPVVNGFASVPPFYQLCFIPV", "assay": "Reversible CYP inhibition in pooled human liver microsomes", "type": "in vitro ADME"}, "CYP2B6 [2]": {"target": "T1, CYP2B6", "assay": "Time-dependent CYP inhibition in pooled human liver microsomes", "type": "in vitro ADME"}, "[3]": {"assay": "Renal clearance after 1 mg/kg intravenous, mouse", "type": "in vivo, male CD-1 mice", "conditions": "1 mg/kg intravenously"}, "[4]": {"assay": "Metabolism in cryopreserved human hepatocyte incubations", "type": "in vitro ADME"}, "MDR1 P-gp": {"target": "MDR1 P-gp (Homo sapiens, UniProt P08183)", "sequence (P08183 whole entry)": "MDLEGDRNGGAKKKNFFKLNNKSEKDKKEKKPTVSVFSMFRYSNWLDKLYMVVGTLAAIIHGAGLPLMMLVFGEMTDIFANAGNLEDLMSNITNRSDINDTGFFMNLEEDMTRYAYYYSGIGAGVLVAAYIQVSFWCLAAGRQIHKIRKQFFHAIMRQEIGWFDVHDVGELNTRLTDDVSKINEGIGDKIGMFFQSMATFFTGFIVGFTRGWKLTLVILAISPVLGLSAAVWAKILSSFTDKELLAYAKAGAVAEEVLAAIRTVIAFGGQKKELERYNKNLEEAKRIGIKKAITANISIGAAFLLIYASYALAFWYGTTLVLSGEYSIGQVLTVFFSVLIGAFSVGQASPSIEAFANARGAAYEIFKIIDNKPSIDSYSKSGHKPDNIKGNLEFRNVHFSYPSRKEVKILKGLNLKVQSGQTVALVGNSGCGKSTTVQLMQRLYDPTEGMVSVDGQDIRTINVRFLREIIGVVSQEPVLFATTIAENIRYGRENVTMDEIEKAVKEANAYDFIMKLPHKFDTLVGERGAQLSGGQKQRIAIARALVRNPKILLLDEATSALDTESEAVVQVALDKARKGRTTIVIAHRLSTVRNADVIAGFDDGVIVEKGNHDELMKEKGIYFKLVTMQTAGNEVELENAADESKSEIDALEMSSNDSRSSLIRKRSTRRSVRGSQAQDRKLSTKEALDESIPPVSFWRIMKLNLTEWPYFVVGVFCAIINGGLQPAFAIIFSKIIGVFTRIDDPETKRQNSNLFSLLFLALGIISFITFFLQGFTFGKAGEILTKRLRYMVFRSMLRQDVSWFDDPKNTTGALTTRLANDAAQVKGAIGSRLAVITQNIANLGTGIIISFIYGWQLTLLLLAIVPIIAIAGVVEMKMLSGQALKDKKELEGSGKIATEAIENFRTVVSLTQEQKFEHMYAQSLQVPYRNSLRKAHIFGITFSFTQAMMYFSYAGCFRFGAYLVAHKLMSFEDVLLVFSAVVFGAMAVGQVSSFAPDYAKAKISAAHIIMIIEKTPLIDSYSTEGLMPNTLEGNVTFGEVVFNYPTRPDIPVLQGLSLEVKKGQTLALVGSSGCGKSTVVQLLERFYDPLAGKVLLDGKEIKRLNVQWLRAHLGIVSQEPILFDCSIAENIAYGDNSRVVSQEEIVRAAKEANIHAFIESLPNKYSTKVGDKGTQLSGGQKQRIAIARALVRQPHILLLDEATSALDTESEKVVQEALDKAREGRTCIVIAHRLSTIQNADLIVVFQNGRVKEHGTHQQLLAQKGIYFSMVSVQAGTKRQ", "assay": "Uptake in MDR1 P-gp-containing Sf9 membrane vesicles (substrate)", "type": "in vitro ADME", "set-up": "expressed in transfected cells"}, "OAT3": {"target": "T2, OAT3 (Homo sapiens, UniProt Q8TCC7)", "T2 construct": "expressed in transfected cells; host or cells: MDCKII", "T2 sequence (Q8TCC7 1-542)": "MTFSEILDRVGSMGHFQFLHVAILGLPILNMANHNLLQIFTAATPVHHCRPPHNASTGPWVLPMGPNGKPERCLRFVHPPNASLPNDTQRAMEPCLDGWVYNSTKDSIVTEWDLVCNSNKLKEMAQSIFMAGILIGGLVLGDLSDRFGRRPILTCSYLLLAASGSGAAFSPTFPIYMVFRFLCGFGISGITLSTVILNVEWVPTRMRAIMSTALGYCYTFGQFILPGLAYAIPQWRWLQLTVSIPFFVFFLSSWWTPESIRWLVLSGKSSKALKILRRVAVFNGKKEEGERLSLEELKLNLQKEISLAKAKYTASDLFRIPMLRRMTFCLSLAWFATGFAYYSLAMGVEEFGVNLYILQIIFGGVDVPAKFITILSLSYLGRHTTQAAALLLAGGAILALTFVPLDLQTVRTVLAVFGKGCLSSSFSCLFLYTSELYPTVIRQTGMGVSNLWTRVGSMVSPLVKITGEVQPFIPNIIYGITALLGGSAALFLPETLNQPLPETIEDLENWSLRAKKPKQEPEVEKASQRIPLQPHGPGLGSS", "assay": "Inhibition of transporter-mediated probe uptake in MDCKII-OAT3 cells", "type": "in vitro ADME"}, "CYP2B6 [5]": {"system": "CYP2B6", "assay": "CYP induction in cryopreserved human hepatocytes", "conditions": "for mRNA Mean Fold Change ± SD CYP2B6: 48 h, n = 3 donors, vs DMSO vehicle"}, "CYP2C8": {"target": "T3, CYP2C8 (Homo sapiens, UniProt P10632)", "T3 sequence (P10632 1-490)": "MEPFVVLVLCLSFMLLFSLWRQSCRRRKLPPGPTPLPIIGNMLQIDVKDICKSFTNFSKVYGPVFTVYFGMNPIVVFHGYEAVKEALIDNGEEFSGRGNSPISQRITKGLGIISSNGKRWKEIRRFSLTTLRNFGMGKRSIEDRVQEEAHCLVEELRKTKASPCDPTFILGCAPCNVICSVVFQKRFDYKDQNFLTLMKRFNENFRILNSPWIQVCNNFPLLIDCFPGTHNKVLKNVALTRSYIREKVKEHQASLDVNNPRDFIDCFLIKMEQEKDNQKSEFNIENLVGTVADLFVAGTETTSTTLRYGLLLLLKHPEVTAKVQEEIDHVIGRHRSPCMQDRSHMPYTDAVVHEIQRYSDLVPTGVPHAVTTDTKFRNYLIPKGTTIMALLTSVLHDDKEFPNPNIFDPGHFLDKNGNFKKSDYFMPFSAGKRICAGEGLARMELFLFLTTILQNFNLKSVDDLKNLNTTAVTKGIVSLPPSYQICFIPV", "assay": "Time-dependent CYP inhibition in pooled human liver microsomes", "type": "in vitro ADME"}, "MATE2K": {"target": "T4, MATE2K (Homo sapiens, UniProt Q86VL8)", "T4 construct": "expressed in transfected cells; host or cells: MDCKII", "T4 sequence (Q86VL8 1-566 isoform Q86VL8-3)": "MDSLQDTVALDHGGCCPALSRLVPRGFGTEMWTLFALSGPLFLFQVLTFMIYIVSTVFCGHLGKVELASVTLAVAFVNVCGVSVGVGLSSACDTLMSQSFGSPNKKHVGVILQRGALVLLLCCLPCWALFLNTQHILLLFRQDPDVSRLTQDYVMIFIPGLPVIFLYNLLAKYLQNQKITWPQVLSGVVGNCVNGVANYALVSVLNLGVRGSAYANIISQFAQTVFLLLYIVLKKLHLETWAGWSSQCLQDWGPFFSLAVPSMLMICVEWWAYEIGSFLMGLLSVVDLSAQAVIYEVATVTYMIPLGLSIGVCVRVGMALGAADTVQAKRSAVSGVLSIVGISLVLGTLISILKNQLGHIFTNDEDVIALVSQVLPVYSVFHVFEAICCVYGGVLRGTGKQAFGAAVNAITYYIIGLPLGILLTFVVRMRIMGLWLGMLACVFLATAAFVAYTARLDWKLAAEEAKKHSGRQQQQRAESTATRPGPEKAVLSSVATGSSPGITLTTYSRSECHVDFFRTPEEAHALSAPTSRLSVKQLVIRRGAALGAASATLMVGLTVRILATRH", "assay": "Inhibition of transporter-mediated probe uptake in MDCKII-MATE2K cells", "type": "in vitro ADME"}, "[6]": {"target": "T5, recombinant human adenosine deaminase (ADA) (Homo sapiens, UniProt P00813)", "T5 construct": "purchased Novus Biologicals, LLC", "T5 sequence (P00813 whole entry)": "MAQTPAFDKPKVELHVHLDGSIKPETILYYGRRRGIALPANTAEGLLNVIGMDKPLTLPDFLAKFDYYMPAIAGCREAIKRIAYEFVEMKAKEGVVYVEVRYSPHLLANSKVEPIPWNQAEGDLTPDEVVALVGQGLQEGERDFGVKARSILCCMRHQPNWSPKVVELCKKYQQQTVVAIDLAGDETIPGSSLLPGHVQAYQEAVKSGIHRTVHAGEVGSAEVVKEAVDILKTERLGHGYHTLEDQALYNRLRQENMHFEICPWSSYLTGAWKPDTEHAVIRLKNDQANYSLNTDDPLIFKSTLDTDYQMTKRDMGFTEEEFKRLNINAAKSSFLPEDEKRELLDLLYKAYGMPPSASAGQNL", "assay": "Metabolism and enzyme kinetics with recombinant human ADA", "type": "in vitro ADME"}, "[7]": {"conditions": "[14C]islatravir 5 µM, presence of ATP, 10 min, mean ± standard deviation"}}, "data": [{"smiles": "C#C[C@]1(CO)O[C@@H](n2cnc3c(N)nc(F)nc32)C[C@@H]1O", "note": "[Islatravir, 4′-Ethynyl-2-fluoro-2′-deoxyadenosine]", "values": [{"measurement": "DDI Potential", "setting": "CYP3A4; CYP3A4 reversible inhibition, FDA, EMA, PMDA guidance", "value": "Low risk"}, {"measurement": "Maximum Unbound Plasma Concentration (Imax,u) to Ki,u Ratio", "setting": "CYP3A4; CYP3A4 reversible, 60 mg, Cmax 1.01 µM, fu,p 0.96, Ki,u = IC50/2", "value": "<0.010", "unit": "µM"}, {"measurement": "Intestinal Concentration (Igut) to Ki,u Ratio", "setting": "CYP3A4; CYP3A4 reversible, Igut = 60 mg/250 mL = 818 µM", "value": "<8.2", "unit": "µM"}, {"measurement": "DDI Potential", "setting": "CYP2B6 [1]; CYP2B6 reversible inhibition, FDA, EMA, PMDA guidance", "value": "Low risk"}, {"measurement": "Maximum Unbound Plasma Concentration (Imax,u) to Ki,u Ratio", "setting": "CYP2B6 [1]; CYP2B6 reversible, 60 mg, Cmax 1.01 µM, fu,p 0.96, Ki,u = IC50/2", "value": "<0.019", "unit": "µM"}, {"measurement": "IC50", "setting": "CYP2B6 [1]; reversible, CYP2B6 bupropion hydroxylation, read-out: Islatravir IC50", "value": "> 100", "unit": "µM"}, {"measurement": "DDI Potential", "setting": "CYP2C19; CYP2C19 reversible inhibition, FDA, EMA, PMDA guidance", "value": "Low risk"}, {"measurement": "Maximum Unbound Plasma Concentration (Imax,u) to Ki,u Ratio", "setting": "CYP2C19; CYP2C19 reversible, 60 mg, Cmax 1.01 µM, fu,p 0.96, Ki,u = IC50/2", "value": "<0.019", "unit": "µM"}, {"measurement": "IC50", "setting": "CYP2C19; reversible, CYP2C19 S-mephenytoin 4′-hydroxylation, read-out: Islatravir IC50", "value": "> 100", "unit": "µM"}, {"measurement": "time-dependent inhibition", "setting": "CYP2B6 [2]; CYP2B6, pre-incubation of 10 and 50 µM for up to 30 min", "value": "no time-dependent inhibition"}, {"measurement": "DDI Potential", "setting": "CYP2B6 [2]; CYP2B6 time dependent inhibition", "value": "Low risk ^h"}, {"measurement": "IC50", "setting": "CYP2B6 [2]; time dependent, CYP2B6, read-out: Islatravir IC50", "value": "> 50", "unit": "µM"}, {"measurement": "Renal Excretion (% Total Plasma Clearance)", "setting": "[3]", "value": 61, "unit": "%"}, {"measurement": "CL renal", "setting": "[3]; male, CD-1, plasma and urine, iv, urine 0-24 h", "value": 15.4, "unit": "mL/min/kg"}, {"measurement": "metabolites observed", "setting": "[4]", "value": "no detectable metabolites"}, {"measurement": "uptake into control vesicles", "setting": "MDR1 P-gp; [7]", "value": "5.7 ± 2.1", "unit": "pmole/mg protein"}, {"measurement": "uptake into membrane vesicles containing MDR1 P-gp", "setting": "MDR1 P-gp; [7]", "value": "3.7 ± 1.3", "unit": "pmole/mg protein"}, {"measurement": "MDR1 P-gp substrate assessment", "setting": "MDR1 P-gp; uptake not ATP-dependent", "value": "not a substrate of MDR1 P-gp"}, {"measurement": "inhibition at 100 µM", "setting": "OAT3; MDCKII-OAT3 cells, probe estrone sulfate, 100 µM islatravir", "value": 31, "unit": "%"}, {"measurement": "IC50", "setting": "OAT3; OAT3-mediated estrone sulfate uptake, read-out: Islatravir IC50", "value": "> 100", "unit": "µM"}, {"measurement": "Maximum Unbound Plasma Concentration (Imax,u) to IC50 Ratio", "setting": "OAT3; OAT3, 60 mg, Cmax 1.01 µM, fu,p 0.96", "value": "<0.010", "unit": "µM"}, {"measurement": "DDI Potential", "setting": "OAT3; OAT3 inhibition, FDA, EMA, PMDA guidance", "value": "Low risk"}, {"measurement": "mRNA Mean Fold Change ± SD CYP2B6", "setting": "CYP2B6 [5]; 0.1 µM", "value": "0.5 ± 0.1"}, {"measurement": "mRNA Mean Fold Change ± SD CYP2B6", "setting": "CYP2B6 [5]; 0.5 µM", "value": "0.5 ± 0.2"}, {"measurement": "mRNA Mean Fold Change ± SD CYP2B6", "setting": "CYP2B6 [5]; 1 µM", "value": "0.7 ± 0.2"}, {"measurement": "mRNA Mean Fold Change ± SD CYP2B6", "setting": "CYP2B6 [5]; 5 µM", "value": "0.7 ± 0.1"}, {"measurement": "mRNA Mean Fold Change ± SD CYP2B6", "setting": "CYP2B6 [5]; 10 µM", "value": "0.9 ± 0.3"}, {"measurement": "mRNA Mean Fold Change ± SD CYP2B6", "setting": "CYP2B6 [5]; 20 µM", "value": "0.4 ± 0.3"}, {"measurement": "mRNA response relative to positive control", "setting": "CYP2B6 [5]; CYP2B6, each tested concentration 0.1-20 µM", "value": "less than 20%"}, {"measurement": "enzyme activity, fold of solvent control", "setting": "CYP2B6 [5]; CYP2B6 bupropion hydroxylation, all islatravir concentrations", "value": "≤ 1.1", "unit": "fold"}, {"measurement": "time-dependent inhibition", "setting": "CYP2C8; CYP2C8, pre-incubation of 10 and 50 µM for up to 30 min", "value": "no time-dependent inhibition"}, {"measurement": "DDI Potential", "setting": "CYP2C8; CYP2C8 time dependent inhibition", "value": "Low risk ^h"}, {"measurement": "IC50", "setting": "CYP2C8; time dependent, CYP2C8, read-out: Islatravir IC50", "value": "> 50", "unit": "µM"}, {"measurement": "DDI Potential", "setting": "MATE2K; MATE2K inhibition, FDA, EMA, PMDA guidance", "value": "Low risk"}, {"measurement": "IC50", "setting": "MATE2K; MATE2K, metformin uptake, read-out: Islatravir IC50", "value": "> 75", "unit": "µM"}, {"measurement": "Maximum Unbound Plasma Concentration (Imax,u) to IC50 Ratio", "setting": "MATE2K; MATE2K, 60 mg, Cmax 1.01 µM, fu,p 0.96", "value": "<0.013", "unit": "µM"}, {"measurement": "ADA-dependent deamination", "setting": "[6]; 50 µM, 3 h, 1 unit/mL recombinant human ADA", "value": "very slow ADA-dependent deamination to M4"}, {"measurement": "Km", "setting": "[6]; M4 formation, linear over 1-250 µM islatravir, read-out: Michaelis constant [Km]", "value": "> 250", "unit": "µM"}]}]}
